Data: patent US20220117958A1, “COMPOSITIONS AND METHODS FOR INHIBITING ACSS2” (THE TRUSTEES OF THE UNIVERSITY OF PENNSYLVANIA, priority 2018, published 2022)
In brackets after ≈: the same amount, converted by molar mass. Several values for one entry are separate records, joined by “and”; a condition that tells them apart may be missing. Equal entries are not always repeated. Where two headings read alike, the source gives them in different places. Marks after values point to notes of the source that are not given here.

Tests used:
H3K9ac = assay: Western blot, differentiated CAD cell lysates, H3K9ac levels; type: cell-based; conditions: differentiated CAD cells, DMSO = 100.00%
From the text: (§1) Table 20 provides results of in vitro and in vivo pharmacokinetics performed for each of the represented compounds.

[1] = In vivo PK, oral gavage, plasma; parameters: species or system Rat (SD); conditions: Rat, PO 5 mg/kg, 24.0 hr; BQL limit 1.00 ng/mL; listed as AUG I-207, 5 mg/kg
[2] = Turbidity-based aqueous solubility; type: physicochemical; conditions: aqueous solution (composition not given), kinetic from dmso stock, read-out: highest soluble concentration
From the text: as §1

[3] = Protein binding via Rapid Equilibrium Dialysis - plasma; type: in vitro ADME; conditions: Rat (SD) plasma, 2 μM
From the text: as §1

[4] = In vivo PK, oral gavage, plasma; parameters: species or system Rat (SD); conditions: for Plasma concentration, mean: Rat (SD), BQL = below quantitation limit (1.00 ng/mL); for Plasma concentration, mean / Plasma concentration, individual animal: PO 5 mg/kg
From the text: as §1
(§2) Tables 4 and 5 depict the summary of rat plasma sample concentrations after administration of ADG I-204. FIG. 6 provides a summary of rat plasma and brain concentrations.

[5] = In vivo PK, IV dose, plasma; parameters: species or system Rat (SD); conditions: for Plasma concentration, mean / Plasma concentration, individual animal: IV 1 mg/kg
From the text: as §1, §2

[6] = Microsomal stability assay (half-life), rat; type: in vitro ADME; conditions: Rat (SD) microsomes, read-out: Microsomal stability T1/2
From the text: as §1

[7] = Microsomal stability assay (half-life), mouse; type: in vitro ADME; conditions: Mouse (CD1) microsomes, read-out: Microsomal stability T1/2
From the text: as §1

[8] = Microsomal stability assay (half-life), human; type: in vitro ADME; conditions: Human microsomes, read-out: Microsomal stability T1/2
From the text: as §1

[9] = In vivo PK, IV dose, Terminal - brain (brain availability); parameters: species or system Rat (SD); conditions: for Brain concentration, mean / Brain concentration, individual animal: IV 1 mg/kg
Experimental: Table 3 and FIG. 5 depict the brain availability of ADG I-204, ADG I-205, ADG I-206, and ADG I-207 after IV administration of 1 mg/kg dose.

## O=C(Nc1ccc2nc(-c3cccs3)c(-c3cccs3)nc2c1)NC12CC3CC(CC(C3)C1)C2 [ADG-207, 1-((1S,3s)-adamantan-1-yl)-3-(2,3-di(thiophen-2-yl)quinoxalin-6-yl)urea]
H3K9ac; 1 uM
  H3K9ac levels normalized to H3 and DMSO control: 57.45%
H3K9ac; 5 uM
  H3K9ac levels normalized to H3 and DMSO control: 63.69%
H3K9ac; 10 uM
  H3K9ac levels normalized to H3 and DMSO control: 72.97%
H3K9ac; 20 uM
  H3K9ac levels normalized to H3 and DMSO control: 70.92%
H3K9ac; 50 uM
  H3K9ac levels normalized to H3 and DMSO control: 116.85%
H3K9ac; 100 uM
  H3K9ac levels normalized to H3 and DMSO control: 107.80%
[1]
  Plasma concentration, individual animal: BQL
[2]
  solubility: 5 µM (≈ 2.43 µg/mL)
[3]
  Protein binding, plasma: % Protein free: 0.9428 % Protein free
[4]; 0.25 hr
  Plasma concentration, mean: BQL
[4]; 0.5 hr
  Plasma concentration, mean: BQL
[4]; 1 hr
  Plasma concentration, mean: BQL
[4]; 4 hr
  Plasma concentration, mean: BQL
[4]; 8 hr
  Plasma concentration, mean: BQL
[4]; 24 hr
  Plasma concentration, mean: BQL
[4]; Rat, 0.250 hr, BQL limit 1.00 ng/mL
  Plasma concentration, individual animal: BQL
[4]; Rat, 0.500 hr, BQL limit 1.00 ng/mL
  Plasma concentration, individual animal: BQL
[4]; Rat, 1.00 hr, BQL limit 1.00 ng/mL
  Plasma concentration, individual animal: BQL
[4]; Rat, 4.00 hr, BQL limit 1.00 ng/mL
  Plasma concentration, individual animal: BQL
[4]; Rat, 8.00 hr, BQL limit 1.00 ng/mL
  Plasma concentration, individual animal: BQL
[4]; SD, rat, plasma, po, 5 mg/kg, Rat, 24.0 hr, BQL limit 1.00 ng/mL, read-out: Plasma concentration, individual animal
  concentration at 24 h: 1.18 ng/mL
[5]; Rat (SD), 0.083 hr, terminal, listed as ADG I-207, 1 mg/kg
  Plasma concentration, mean: 1660*** ng/mL
[5]; Rat (SD), 1 hr, terminal, listed as ADG I-207, 1 mg/kg
  Plasma concentration, mean: 55 ng/mL
[5]; Rat (SD), 4 hr, terminal, listed as ADG I-207, 1 mg/kg
  Plasma concentration, mean: 1 ng/mL
[5]; Rat (SD), 8 hr, terminal, listed as ADG I-207, 1 mg/kg
  Plasma concentration, mean: 1 ng/mL
[5]; Rat (SD), 24 hr, terminal, BQL limit 1.00 ng/mL (ADG I-205: 2.00 ng/mL)
  Plasma concentration, mean: BQL
[5]; Rat, 0.0830 hr, terminal, third animal received only 70% of the test article, listed as ADG I-207, 1 mg/kg
  Plasma concentration, individual animal: 1640 ng/mL and 2230 ng/mL and 1110 ng/mL
[5]; Rat, 0.500 hr, not terminal (animals 4, 5 and 6), listed as ADG I-207, 1 mg/kg
  Plasma concentration, individual animal: 1560** ng/mL and 93.3 ng/mL and 170 ng/mL
[5]; Rat, 1.00 hr, terminal, listed as ADG I-207, 1 mg/kg
  Plasma concentration, individual animal: 70.3 ng/mL and 27.3 ng/mL and 65.8 ng/mL
[5]; Rat, 4.00 hr, terminal, BQL limit 1.00 ng/mL (ADG I-205: 2.00 ng/mL), listed as ADG I-207, 1 mg/kg
  Plasma concentration, individual animal: BQL
[5]; Rat, 8.00 hr, terminal, BQL limit 1.00 ng/mL (ADG I-205: 2.00 ng/mL), listed as ADG I-207, 1 mg/kg
  Plasma concentration, individual animal: BQL and 1.09 ng/mL
[5]; Rat, 24.0 hr, terminal, BQL limit 1.00 ng/mL (ADG I-205: 2.00 ng/mL)
  Plasma concentration, individual animal: BQL
[5]; SD, rat, plasma, iv, 1 mg/kg, Rat (SD), 0.083 hr, terminal, read-out: Plasma concentration, mean
  concentration at 0.083 h: 1660 ng/mL
[5]; SD, rat, plasma, iv, 1 mg/kg, Rat (SD), 0.500 hr, not a terminal time point (animals 4, 5 and 6)
  concentration at 0.5 h: 608 ng/mL
[5]; SD, rat, plasma, iv, 1 mg/kg, Rat (SD), 1 hr, terminal, read-out: Plasma concentration, mean
  concentration at 1 h: 54.5 ng/mL
[5]; SD, rat, plasma, iv, 1 mg/kg, Rat (SD), 4 hr, terminal, read-out: Plasma concentration, mean
  concentration at 4 h: 1.37 ng/mL
[5]; SD, rat, plasma, iv, 1 mg/kg, Rat (SD), 8 hr, terminal, read-out: Plasma concentration, mean
  concentration at 8 h: 1.05 ng/mL
[5]; SD, rat, plasma, iv, 1 mg/kg, Rat, 4.00 hr, terminal, BQL limit 1.00 ng/mL (ADG I-205: 2.00 ng/mL), read-out: Plasma concentration, individual animal
  concentration at 4 h: 1.37 ng/mL
[5]; SD, rat, plasma, iv, 1 mg/kg, Rat, 8.00 hr, terminal, BQL limit 1.00 ng/mL (ADG I-205: 2.00 ng/mL), read-out: Plasma concentration, individual animal
  concentration at 8 h: 1 ng/mL
[6]
  half-life at 2 μM: 5.5 min
[7]
  half-life at 2 μM: 5.5 min
[8]
  half-life at 2 μM: 18.7 min
[9]; Rat (SD), 1 hr, listed as ADG I-207, 1 mg/kg
  Brain concentration, mean: 51 ng/g
[9]; Rat (SD), 4 hr, BQL limit 10.0 ng/g (204, 206), 20.0 ng/g (205, 207)
  Brain concentration, mean: BQL
[9]; Rat (SD), 8 hr, BQL limit 10.0 ng/g (204, 206), 20.0 ng/g (205, 207)
  Brain concentration, mean: BQL
[9]; Rat (SD), 24 hr, BQL limit 10.0 ng/g (204, 206), 20.0 ng/g (205, 207)
  Brain concentration, mean: BQL
[9]; Rat, 0.0830 hr, third animal received only 70% of the test article, listed as ADG I-207, 1 mg/kg
  Brain concentration, individual animal: 204 ng/g and 253 ng/g and 119*** ng/g
[9]; Rat, 1.00 hr, listed as ADG I-207, 1 mg/kg
  Brain concentration, individual animal: 39.8 ng/g and 58.9 ng/g
[9]; Rat, 4.00 hr, BQL limit 10.0 ng/g (204, 206), 20.0 ng/g (205, 207)
  Brain concentration, individual animal: BQL
[9]; Rat, 8.00 hr, BQL limit 10.0 ng/g (204, 206), 20.0 ng/g (205, 207)
  Brain concentration, individual animal: BQL
[9]; Rat, 24.0 hr, BQL limit 10.0 ng/g (204, 206), 20.0 ng/g (205, 207)
  Brain concentration, individual animal: BQL
[9]; SD, rat, brain, iv, 1 mg/kg, Rat (SD), 0.083 hr
  concentration at 0.083 h: 192 ng/g
[9]; SD, rat, brain, iv, 1 mg/kg, Rat (SD), 1 hr, read-out: Brain concentration, mean
  concentration at 1 h: 50.8 ng/g
[9]; SD, rat, brain, iv, 1 mg/kg, Rat, 1.00 hr, read-out: Brain concentration, individual animal
  concentration at 1 h: 53.6 ng/g
